Source: US8580965B2, “Substituted sulfonamide compounds” (Gruenenthal GmbH, priority 2006, dated 2013)

Key:
[1] = biological target: T1, human B1R receptor (bradykinin 1 receptor) (Homo sapiens, UniProt P46663); test: FLIPR Ca2+ assay (Fluo-4) on CHO K1 cells stably transfected with the human B1R gene; % activation and % inhibition at 10 μM; format: cell-based; conditions: CHO K1 hB1R cells, Ca2+ inflow after 0.5 nM Lys-Des-Arg9-bradykinin; for inhibition at 10 µM: CHO-K1, test substance 10 μM, read-out: B1R antagonism, human [10 μM] % inhibition
T1 construct: host or cells: CHO K1 cells (hB1R cells)
T1 sequence (P46663 1-353): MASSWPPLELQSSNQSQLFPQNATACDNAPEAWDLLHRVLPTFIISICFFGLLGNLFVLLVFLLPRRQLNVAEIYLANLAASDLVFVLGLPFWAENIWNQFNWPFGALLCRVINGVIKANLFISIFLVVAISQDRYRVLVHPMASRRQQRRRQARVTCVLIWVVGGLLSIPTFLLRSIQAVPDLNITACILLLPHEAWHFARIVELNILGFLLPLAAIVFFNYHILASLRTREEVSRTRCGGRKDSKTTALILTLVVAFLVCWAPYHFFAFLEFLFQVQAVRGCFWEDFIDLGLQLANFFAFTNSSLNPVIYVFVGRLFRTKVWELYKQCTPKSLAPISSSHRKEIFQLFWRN
Outline: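 CHO K1 cells stably expressing human or rat B1R, Fluo-4 loaded, read by FLIPR (peak fluorescence). Compound at 10 µM first gives % activation versus agonist; after 10 min, agonist (human: 0.5 nM Lys-Des-Arg9-bradykinin; rat: 100 nM Des-Arg9-bradykinin) gives % inhibition relative to maximal inhibition.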

[2] = biological target: T2, B1R receptor of the rat (bradykinin 1 receptor) (Rattus norvegicus, UniProt P97583); test: FLIPR Ca2+ assay (Fluo-4) on CHO K1 cells stably transfected with the B1R gene of the rat; % activation and % inhibition at 10 μM; format: cell-based; conditions: CHO K1 rB1R cells, Ca2+ inflow after 100 nM Des-Arg9-bradykinin; for inhibition at 10 µM: CHO-K1, test substance 10 μM, read-out: B1R antagonism, rat [10 μM] % inhibition
T2 construct: host or cells: CHO K1 cells (rB1R cells)
T2 sequence (P97583 1-337): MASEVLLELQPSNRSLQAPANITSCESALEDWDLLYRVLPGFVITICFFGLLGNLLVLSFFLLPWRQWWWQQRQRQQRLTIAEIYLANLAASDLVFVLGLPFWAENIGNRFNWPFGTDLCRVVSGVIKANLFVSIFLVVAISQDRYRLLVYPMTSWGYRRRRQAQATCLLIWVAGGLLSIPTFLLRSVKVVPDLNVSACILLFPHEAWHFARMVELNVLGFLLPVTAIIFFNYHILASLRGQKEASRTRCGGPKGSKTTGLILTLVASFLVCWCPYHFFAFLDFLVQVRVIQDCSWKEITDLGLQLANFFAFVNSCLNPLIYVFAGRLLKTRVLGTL
Method: The agonistic or antagonistic action of substances can be quantified on the bradykinin receptor 1 (B1R) of the species human and rat with ectopically expressing cell lines (CHO K1 cells) and with the aid of a Ca^2+-sensitive dye (Fluo-4) using a fluorescent imaging plate reader (FLIPR). The indication in % activation is based on the Ca^2+ signal after addition of Lys-Des-Arg^9-bradykinin (0.5 nM) or Des-Arg^9-bradykinin (100 nM). Antagonists result in a suppression of the Ca^2+ influx following administration of the agonist. The % inhibition in comparison with the maximum achievable inhibition is indicated.
Functional Investigation on the Bradykinin 1 Receptor (B1R)
The agonistic or antagonistic action of substances can be determined on the bradykinin 1 receptor (B1R) of the human and rat species with the following assay. According to this assay, the Ca^2+ inflow through the channel is quantified with the aid of a Ca^2+-sensitive dyes (Fluo-4 type, Molecular Probes Europe BV, Leiden, The Netherlands) in a fluorescent imaging plate reader (FLIPR, Molecular Devices, Sunnyvale, USA).
Chinese Hamster Ovary cells (CHO K1 cells) which are stably transfected with the human B1R gene (hB1R cells, Euroscreen s.a., Gosselies, Belgium) or the B1R gene of the rat (rB1R cells, Axxam, Milan, Italy) are used. For functional investigations, these cells are plated-out on black 96-well plates with a clear base (BD Biosciences, Heidelberg, Germany) in a density of 20,000-25,000 cells/well. Overnight, the cells are incubated at 37° C. and 5% CO2 in culture medium (hB1R cells: Nutrient Mixture Ham's F12, Gibco Invitrogen GmbH, Karlsruhe, Germany; rB1R cells: D-MEM/F12, Gibco Invitrogen, Karlsruhe, Germany) with 10 vol. % FBS (foetal bovine serum, Gibco Invitrogen GmbH, Karlsruhe, Germany). On the following day, the cells are loaded with 2.13 μM Fluo-4 (Molecular Probes Europe BV, Leiden, The Netherlands) in HBSS buffer (Hank's buffered saline solution, Gibco Invitrogen GmbH, Karlsruhe, Germany) […] (Sigma-Aldrich, Taufkirchen, Germany) and 10 mM HEPES (Sigma-Aldrich, Taufkirchen, Germany) for 60 min at 37° C. The plates are subsequently washed 2× with HBSS buffer, and HBSS buffer which additionally contains 0.1% BSA (bovine serum albumin; Sigma-Aldrich, Taufkirchen, Germany), 5.6 mM glucose and 0.05% gelatine (Merck KGaA, Darmstadt, Germany) is added. After a further incubation of 20 minutes at room temperature, the plates are inserted into the FLIPR for Ca^2+ measurement. The Ca^2+-dependent fluorescence is measured here before and after addition of substances (λex=488 nm, λem=540 nm). The quantification is effected by measurement of the highest fluorescence intensity (FC, fluorescence counts) over time.
The FLIPR protocol comprises 2 additions of substance. Test substances (10 μM) are first pipetted on to the cells and the Ca^2+ inflow is compared with the control (hB1R: Lys-Des-Arg^9-bradykinin 0.5 nM; rB1R: Des-Arg^9-bradykinin 100 nM). The value in % activation based on the Ca^2+ signal after addition of Lys-Des-Arg^9-bradykinin (0.5 nM) or Des-Arg^9-bradykinin (100 nM) is obtained therefrom. After incubation for 10 minutes, 0.5 nM Lys-Des-Arg^9-bradykinin (hB1R) or 100 nM Des-Arg^9-bradykinin (rB1R) are applied and the inflow of Ca^2+ is likewise determined. Antagonists lead to a suppression of the Ca^2+ inflow. % inhibition compared with the maximum inhibition which can be achieved is calculated. The compounds show a good activity on the human and on the rat receptor. The following data were determined by way of example: […]

| SMILES | inhibition at 10 µM [1] [%] | inhibition at 10 µM [2] [%] | B1R antagonism, human [10 μM] % inhibition ([1]; test substance 10 μM) [%] | B1R antagonism, rat [10 μM] % inhibition ([2]; test substance 10 μM) [%] |
| --- | --- | --- | --- | --- |
| COc1cc(C)c(S(=O)(=O)N2Cc3ccccc3CC2COCC(=O)N2CCC(O)(c3cccc(C(F)(F)F)c3)CC2)c(C)c1C (stereo not drawn) [Example 233, 1-(4-hydroxy-4-(3-(trifluoromethyl)phenyl)piperidin-1-yl)-2-((2-(4-methoxy-2,3,6-trimethylphenylsulfonyl)-1,2,3,4-tetrahydroisoquinolin-3-yl)methoxy)ethanone] | 38.9 | 70.2 |  |  |
| COc1cc(C)c(S(=O)(=O)N(C)CCOCC(=O)N2CCC(O)(c3ccccn3)CC2)c(C)c1 [Example 4, N-{2-[2-(4′-hydroxy-3′,4′,5′,6-tetrahydro-2′H-[2,4′]bipyridinyl-1′-yl)-2-oxo-ethoxy]-ethyl}-4-methoxy-2,6,N-trimethyl-phenylsulfonamide] |  |  | 101.69 | 105.56 |
| COc1ccc(S(=O)(=O)N2Cc3ccccc3CC2COCC(=O)N2CCC(O)(Cc3ccccc3)CC2)cc1 (stereo not drawn) [Example 23, 1-(4-benzyl-4-hydroxy-piperidin-1-yl)-2-[2-(4-methoxy-phenylsulfonyl)-1,2,3,4-tetrahydro-isoquinolin-3-ylmethoxy]-ethanone] | 15.7 | 56.9 |  |  |
| O=C(COC1CCN(S(=O)(=O)c2cccc(C(F)(F)F)c2)C1)N1CCC(O)(c2ccccn2)CC1 (stereo not drawn) [Example 59, 1-(4′-hydroxy-3′,4′,5′,6′-tetrahydro-2′H-[2,4′]bipyridinyl-1′-yl)-2-[1-(3-trifluoromethyl-phenylsulfonyl)-pyrrolidin-3-yloxy]-ethanone] | -24 | 16.6 |  |  |
| O=C(COCC1CCCCN1S(=O)(=O)c1c(Cl)cccc1Cl)N1CCC(O)(c2ccc(Br)cc2)CC1 (stereo not drawn) [Example 234, 1-(4-(4-bromophenyl)-4-hydroxypiperidin-1-yl)-2-((1-(2,6-dichlorophenylsulfonyl)piperidin-2-yl)methoxy)ethanone] | 102 | 99.3 |  |  |
| COc1cc(C)c(S(=O)(=O)N(CCOCC(=O)N2CCC(O)(Cc3ccccc3)CC2)CC2CC2)c(C)c1C [Example 207, N-(2-(2-(4-benzyl-4-hydroxypiperidin-1-yl)-2-oxoethoxy)ethyl)-N-(cyclopropylmethyl)-4-methoxy-2,3,6-trimethylphenylsulfonamide] | 94.2 | 99.2 |  |  |
| O=C(COCc1sccc1N(Cc1ccccc1)S(=O)(=O)c1ccc(Cl)c(Cl)c1)N1CCC(O)(Cc2ccccc2)CC1 [Example 69, N-benzyl-N-{2-[2-(4-benzyl-4-hydroxy-piperidin-1-yl)-2-oxo-ethoxymethyl]-thiophen-3-yl}-3,4-dichloro-phenylsulfonamide] | 9.45 | 28.4 |  |  |
| CN(CCOCC(=O)N1CCC(O)(c2ccccn2)CC1)S(=O)(=O)c1cc(F)ccc1F [Example 71, 2,5-difluoro-N-{2-[2-(4′-hydroxy-3′,4′,5′,6′-tetrahydro-2′H-[2,4′]bipyridinyl-1′-yl)-2-oxo-ethoxy]-ethyl}-N-methyl-phenylsulfonamide] | -0.46 | 4.46 |  |  |
| O=C(COCC1CCCN1S(=O)(=O)c1c(Cl)cc(Cl)cc1Cl)N1CCC(O)(c2cccnc2)CC1 (stereo not drawn) [Example 204, 1-(4-hydroxy-4-(pyridin-3-yl)piperidin-1-yl)-2-((1-(2,4,6-trichlorophenylsulfonyl)pyrrolidin-2-yl)methoxy)ethanone] | 104 | 98 |  |  |
| COc1cc(C)c(S(=O)(=O)N(CCOCC(=O)N2CCC(O)(c3cccnc3)CC2)CC(C)C)c(C)c1C [Example 241, N-(2-(2-(4-hydroxy-4-(pyridin-3-yl)piperidin-1-yl)-2-oxoethoxy)ethyl)-N-isobutyl-4-methoxy-2,3,6-trimethylphenylsulfonamide] | 103 | 101 |  |  |
| O=C(COCC1CCCN1S(=O)(=O)c1c(Cl)cccc1Cl)N1CCC(O)(c2cccnc2)CC1 (stereo not drawn) [Example 197, 2-((1-(2,6-dichlorophenylsulfonyl)pyrrolidin-2-yl)methoxy)-1-(4-hydroxy-4-(pyridin-3-yl)piperidin-1-yl)ethanone] | 103 | 96.4 |  |  |
| Cc1cc(S(=O)(=O)N2CCCCC2COCC(=O)N2CCC(O)(c3ccccc3)CC2)c(C)cc1Cl (stereo not drawn) [Example 158, 2-((1-(4-chloro-2,5-dimethylphenylsulfonyl)piperidin-2-yl)methoxy)-1-(4-hydroxy-4-phenylpiperidin-1-yl)ethanone] | 44.9 | 105 |  |  |
| COc1cc(C)c(S(=O)(=O)N2CCCCC2COCC(=O)N2CCC(O)(c3ccc(Br)cc3)CC2)c(C)c1 (stereo not drawn) [Example 243, 1-(4-(4-bromophenyl)-4-hydroxypiperidin-1-yl)-2-((1-(4-methoxy-2,6-dimethylphenylsulfonyl)piperidin-2-yl)methoxy)ethanone] | 104 | 96.8 |  |  |
| O=C(COCC1CCc2ccccc2N1S(=O)(=O)c1ccc(Cl)c(Cl)c1)N1CCC(O)(c2ccccn2)CC1 (stereo not drawn) [Example 146, 2-((1-(3,4-dichlorophenylsulfonyl)-1,2,3,4-tetrahydroquinolin-2-yl)methoxy)-1-(4-hydroxy-4-(pyridin-2-yl)piperidin-1-yl)ethanone] | 70.7 | 92.8 |  |  |
| COc1cc(C)c(S(=O)(=O)N2CCC(OCC(=O)N3CCC(O)(c4ccccn4)CC3)C2)c(C)c1 (stereo not drawn) [Example 21, 1-(4′-hydroxy-3′,4′,5′,6′-tetrahydro-2′H-[2,4′]bipyridinyl-1′-yl)-2-[1-(4-methoxy-2,6-dimethyl-phenylsulfonyl)-pyrrolidin-3-yloxy]-ethanone] | 20.5 | 71.1 |  |  |
